Experimental data reported in patent publication US4156724A, “N-acylamino-alpha-arylacetamido cephalosporins and antibacterial compositions and methods containing them” (Sumitomo Chemical Company, Limited, priority 1974, dated 1979).
Values after ≈ are worked out from the molar mass of the structure shown.

How the values were obtained:
Format in all cases: cell-based
[1] = tested on: Staphylococcus aureus 209 P; test: Minimum Inhibitory Concentration, Staphylococcus aureus 209 P; details: Staphylococcus aureus 209 P; read-out: Minimum Inhibitory Concentration
Description: (§1) anti-microbial activity tests were carried out on the compounds obtained in the Examples.

Escherichia coli NIHJ = test: Minimum Inhibitory Concentration, Escherichia coli NIHJ; details: Escherichia coli NIHJ; read-out: Minimum Inhibitory Concentration
Description: as §1

[2] = tested on: Pseudomonas aeruginosa 104; test: Minimum Inhibitory Concentration, Pseudomonas aeruginosa 104; details: Pseudomonas aeruginosa 104; read-out: Minimum Inhibitory Concentration
Description: as §1

[3] = tested on: Enterobacter aerogeneus No. 75; test: Minimum Inhibitory Concentration, Enterobacter aerogeneus No. 75; details: Enterobacter aerogeneus No. 75; read-out: Minimum Inhibitory Concentration
Description: as §1

Proteus vulgaris HX 19 = test: Minimum Inhibitory Concentration, Proteus vulgaris HX 19; details: HX19; Proteus vulgaris HX 19; read-out: Minimum Inhibitory Concentration
Description: as §1

[4] = tested on: Staphylococcus aureus FS 289; test: Minimum Inhibitory Concentration, Staphylococcus aureus FS 289; details: FS289; Staphylococcus aureus FS 289, strain resistant to penicillin; read-out: Minimum Inhibitory Concentration
Description: as §1
*Staphylococcus aureus FS 289: strain resistant to penicillin

[5] = tested on: Klebsiella pneumoniae 602; test: Minimum Inhibitory Concentration, Klebsiella pneumoniae 602; details: Klebsiella pneumoniae, 602, Klebsiella pneumoniae 602; read-out: Minimum Inhibitory Concentration
Description: as §1

Serratia No. 72 = test: Minimum Inhibitory Concentration, Serratia No. 72
Description: as §1

Row | SMILES | MIC [1] [mg/L] | MIC (Escherichia coli NIHJ) [mg/L] | MIC [2] [mg/L] | MIC [3] [mg/L] | MIC (Proteus vulgaris HX 19) [mg/L] | MIC [4] [mg/L] | MIC [5] [mg/L] | MIC (Serratia No. 72) [mg/L]
1 | Cn1nnnc1SCC1=C(C(=O)O)N2C(=O)[C@@H](NC(=O)[C@H](NC(=O)c3cnc4cccnc4c3O)c3cccc(NC(N)=O)c3)[C@H]2SC1 [Example 38] | 0.78 (≈ 1.13 µM) | 1.56 (≈ 2.26 µM) | 3.13 (≈ 4.53 µM) | 3.13 (≈ 4.53 µM) | 0.1 (≈ 0.145 µM) | 6.25 (≈ 9.04 µM) | 1.56 (≈ 2.26 µM) | 12.5 (≈ 18.1 µM)
2 | COc1ccc2ncc(C(=O)N[C@@H](C(=O)N[C@@H]3C(=O)N4C(C(=O)O)=C(CSc5nnnn5C)CS[C@H]34)c3cccc(NC(N)=O)c3)c(O)c2n1 [Example 39] | 0.78 (≈ 1.08 µM) | 1.56 (≈ 2.16 µM) | 3.13 (≈ 4.34 µM) | 3.13 (≈ 4.34 µM) | 0.1 (≈ 0.139 µM) | 6.25 (≈ 8.66 µM) | 1.56 (≈ 2.16 µM) | 12.5 (≈ 17.3 µM)
3 | CSc1ccc2ncc(C(=O)N[C@@H](C(=O)N[C@@H]3C(=O)N4C(C(=O)O)=C(CSc5nnc(C)s5)CS[C@H]34)c3cccc(NC(N)=O)c3)c(O)c2n1 [Example 40] | 0.78 (≈ 1.03 µM) | 3.13 (≈ 4.15 µM) | 3.13 (≈ 4.15 µM) | 6.25 (≈ 8.29 µM) | 0.1 (≈ 0.133 µM) | 6.25 (≈ 8.29 µM) | 1.56 (≈ 2.07 µM) | 12.5 (≈ 16.6 µM)
4 | CSc1cnc2c(O)c(C(=O)NC(C(=O)NC3C(=O)N4C(C(=O)O)=C(CSc5nnnn5C)CSC34)c3cccc(NC(N)=O)c3)cnc2n1 (centres unmarked) [Example 41] | 1.56 (≈ 2.11 µM) | 3.13 (≈ 4.24 µM) | 6.25 (≈ 8.46 µM) | 6.25 (≈ 8.46 µM) | 0.2 (≈ 0.271 µM) | 6.25 (≈ 8.46 µM) | 3.13 (≈ 4.24 µM) | 12.5 (≈ 16.9 µM)
5 | Cc1nc2ncc(C(=O)NC(C(=O)NC3C(=O)N4C(C(=O)O)=C(CSc5nnnn5C)CSC34)c3cccc(NC(N)=O)c3)c(O)c2nc1C (centres unmarked) [Example 42] | 1.56 (≈ 2.16 µM) | 3.13 (≈ 4.34 µM) | 6.25 (≈ 8.67 µM) | 6.25 (≈ 8.67 µM) | 0.2 (≈ 0.277 µM) | 6.25 (≈ 8.67 µM) | 3.13 (≈ 4.34 µM) | 12.5 (≈ 17.3 µM)
6 | Cn1nnnc1SCC1=C(C(=O)O)N2C(=O)C(NC(=O)C(NC(=O)c3cnc4sccc4c3O)c3cccc(NC(N)=O)c3)C2SC1 (centres unmarked) [Example 43] | 0.78 (≈ 1.12 µM) | 6.25 (≈ 8.97 µM) | 6.25 (≈ 8.97 µM) | 6.25 (≈ 8.97 µM) | 0.39 (≈ 0.56 µM) | 6.25 (≈ 8.97 µM) | 3.13 (≈ 4.49 µM) | 12.5 (≈ 17.9 µM)
7 | Cn1nnnc1SCC1=C(C(=O)O)N2C(=O)C(NC(=O)C(NC(=O)c3cnc4scnc4c3O)c3cccc(NC(N)=O)c3)C2SC1 (centres unmarked) [Example 44] | 0.78 (≈ 1.12 µM) | 6.25 (≈ 8.96 µM) | 6.25 (≈ 8.96 µM) | 6.25 (≈ 8.96 µM) | 0.39 (≈ 0.559 µM) | 6.25 (≈ 8.96 µM) | 3.13 (≈ 4.49 µM) | 12.5 (≈ 17.9 µM)
8 | NC(=O)Nc1cccc(C(NC(=O)c2cnccc2O)C(=O)NC2C(=O)N3C(C(=O)O)=C(CSc4nnc(CO)s4)CSC23)c1 (centres unmarked) [Example 45] | 0.39 (≈ 0.58 µM) | 12.5 (≈ 18.6 µM) | 12.5 (≈ 18.6 µM) | 12.5 (≈ 18.6 µM) | 0.39 (≈ 0.58 µM) | 6.25 (≈ 9.29 µM) | 3.13 (≈ 4.65 µM) | 50 (≈ 74.3 µM)
9 | NC(=O)Nc1cccc(C(NC(=O)c2cnccc2O)C(=O)NC2C(=O)N3C(C(=O)O)=C(CSc4ccc(O)nn4)CSC23)c1 (centres unmarked) [Example 46] | 0.78 (≈ 1.2 µM) | 12.5 (≈ 19.2 µM) | 12.5 (≈ 19.2 µM) | 12.5 (≈ 19.2 µM) | 0.39 (≈ 0.598 µM) | 6.25 (≈ 9.58 µM) | 3.13 (≈ 4.8 µM) | 50 (≈ 76.6 µM)
10 | NC(=O)Nc1ccc(C(NC(=O)c2cnccc2O)C(=O)NC2C(=O)N3C(C(=O)O)=C(CSc4nnc(CO)s4)CSC23)cc1 (centres unmarked) [Example 47] | 0.78 (≈ 1.16 µM) | 12.5 (≈ 18.6 µM) | 12.5 (≈ 18.6 µM) | 12.5 (≈ 18.6 µM) | 0.39 (≈ 0.58 µM) | 6.25 (≈ 9.29 µM) | 3.13 (≈ 4.65 µM) | 50 (≈ 74.3 µM)
11 | NC(=O)Nc1cccc(C(NC(=O)c2ccnnc2O)C(=O)NC2C(=O)N3C(C(=O)O)=C(CSc4nnc(CO)s4)CSC23)c1 (centres unmarked) [Example 48] | 0.78 (≈ 1.16 µM) | 12.5 (≈ 18.6 µM) | 25 (≈ 37.1 µM) | 25 (≈ 37.1 µM) | 0.78 (≈ 1.16 µM) | 12.5 (≈ 18.6 µM) | 3.13 (≈ 4.65 µM) | 100 (≈ 148 µM)
12 | NC(=O)Nc1cccc(C(NC(=O)c2cccnc2O)C(=O)NC2C(=O)N3C(C(=O)O)=C(CSc4nnc(CO)s4)CSC23)c1 (centres unmarked) [Example 49] | 0.78 (≈ 1.16 µM) | 12.5 (≈ 18.6 µM) | 25 (≈ 37.2 µM) | 25 (≈ 37.2 µM) | 0.78 (≈ 1.16 µM) | 12.5 (≈ 18.6 µM) | 6.25 (≈ 9.29 µM) | 50 (≈ 74.3 µM)
13 | CC(=O)OCC1=C(C(=O)O)N2C(=O)C(NC(=O)[C@H](NC(=O)c3cnc4cccnc4c3O)c3ccc(N)cc3)C2SC1 (stereo partly drawn) [Example 50, 7-[D-α-(4-Hydroxy-1,5-naphthyridine-3-carboxyamido)-α-p-aminophenylacetamido]cephalosporanic Acid] | 1.56 (≈ 2.63 µM) | 3.13 (≈ 5.28 µM) | 6.25 (≈ 10.5 µM) | 6.25 (≈ 10.5 µM) | 0.39 (≈ 0.658 µM) | 6.25 (≈ 10.5 µM) | 3.13 (≈ 5.28 µM) | 50 (≈ 84.4 µM)
